Data from article PMC3755495 (Biochemical pharmacology, 2013).

Target: T1, MCAK (Kinesin-like protein KIF2C/MCAK) (Homo sapiens, UniProt Q99661)
T1 sequence (Q99661 2-725): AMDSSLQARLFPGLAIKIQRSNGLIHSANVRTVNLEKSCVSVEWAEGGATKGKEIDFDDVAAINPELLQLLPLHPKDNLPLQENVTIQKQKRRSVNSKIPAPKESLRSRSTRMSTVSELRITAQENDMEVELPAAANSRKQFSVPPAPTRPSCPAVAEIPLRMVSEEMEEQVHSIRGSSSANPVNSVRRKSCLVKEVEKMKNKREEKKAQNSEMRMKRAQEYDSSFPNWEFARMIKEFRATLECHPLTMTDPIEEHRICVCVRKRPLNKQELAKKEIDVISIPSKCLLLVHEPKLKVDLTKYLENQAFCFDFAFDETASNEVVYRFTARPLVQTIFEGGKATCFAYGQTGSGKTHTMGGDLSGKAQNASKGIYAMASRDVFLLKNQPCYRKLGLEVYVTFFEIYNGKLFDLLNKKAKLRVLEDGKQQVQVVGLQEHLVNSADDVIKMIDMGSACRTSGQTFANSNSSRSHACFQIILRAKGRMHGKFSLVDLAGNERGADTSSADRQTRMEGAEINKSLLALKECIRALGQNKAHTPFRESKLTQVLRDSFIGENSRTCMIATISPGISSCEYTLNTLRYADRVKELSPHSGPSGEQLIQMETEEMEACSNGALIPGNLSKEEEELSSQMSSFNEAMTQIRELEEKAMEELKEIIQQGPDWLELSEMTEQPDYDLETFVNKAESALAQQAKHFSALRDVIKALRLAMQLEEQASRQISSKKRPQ
Assay: displacement of MCAK from immobilized ligand […], Western blot
Format: biochemical
Settings: MgATP in NP-40 lysis buffer, 15 min

Nc1ncnc2c1ncn2[C@@H]1O[C@H](COP(=O)(O)OP(=O)(O)OP(=O)(O)O)[C@@H](O)[C@H]1O [ATP]
displacement of MCAK from immobilized ligand 3, Western blot: MCAK binding to the immobilized drug could be inhibited by increasing concentrations of ATP
